Source: the supplement of paper PMC8882468

Tests used:
Test in all cases: CTG-3D luminescence at 96 h relative to day-0 seeding control (ratio to day 0); higher = more growth / less cytotoxicity; PDxO 3D drug screen, 96 h, CTG-3D normalised to day-0 seeding control.
HCI-001 = system: HCI-001 (organoid from a triple-negative breast cancer xenograft)
HCI-003.E2 = system: HCI-003.E2 (organoid from an ER-positive breast cancer xenograft)
HCI-027 = system: HCI-027 (organoid from a triple-negative breast cancer xenograft)

O=C(O)C1(C(=O)O)CCC1.[NH2-].[NH2-].[Pt+2] [carboplatin]
CTG-3D luminescence at 96 h
Details | 12.5 pM | 0.00025 µM | 0.005 µM | 0.1 µM | 1 µM | 10 µM | 100 µM | 625 fM
HCI-001, days in culture: 240 | 1.59 | 1.15 | 0.945 | 1.27 | 1.63 | 1.29 | 0.471 | 1.36
HCI-001, days in culture: 260 | 1.71 | 0.978 | 2.01 | 1.09 | 1.41 | 1.48 | 0.569 | 0.928
HCI-001, days in culture: 269 | 1.59 | 1.61 | 1.58 | 1.8 | 1.83 | 2.14 | 0.918 | 1.75
HCI-001, days in culture: 327 | 1.5 | 1.43 | 2.04 | 1.74 | 1.53 | 1.15 | 0.592 | 1.83
HCI-001, days in culture: 346 | 1.42 | 1.53 | 1.03 | 1.02 | 1.47 | 1.47 | 1.01 | 1.35
HCI-001, days in culture: 364 | 1.45 | 1.09 | 1.54 | 0.839 | 1.01 | 1.56 | 0.829 | 1.51
HCI-027, days in culture: 176 | 1.57 | 1.38 | 2.11 | – | – | – | – | –
HCI-027, days in culture: 194 | 1.43 | 1.55 | 1.4 | – | – | – | – | –
HCI-027, days in culture: 201 | 2.1 | 1.98 | – | – | – | – | – | –

HCI-003.E2
Details | CTG-3D luminescence at 96 h
12.5 pM | 2.12
0.00025 µM | 2.49
0.005 µM | 2.22
0.1 µM | 2.23
1 µM | 2.32
10 µM | 2.35
100 µM | 1.65
625 fM | 2.11
